Series [1] can be described thus: AML phase 1b study PTC299-HEM-001-LEU, PK. It is filed as in vivo, human. Conditions: 80 mg QD tablet loading dose for 7 days followed by 40 mg maintenance dose (cohort 2), AML patients. On the procedure: It was anticipated that elimination would not be saturated with 50 mg tablet QD after 7 days of 200 mg tablet BID dosing. This is supported by results from the ongoing AML open-label, non-randomized, phase 1b study, PTC299-HEM-001-LEU.

Series [2] deals with Respiratory syncytial virus. The series is described as follows: Antiviral activity, Respiratory syncytial virus (Hep2 cells). It is filed as cell-based. The following applies: human respiratory syncytial virus, HEp-2.
Series [3] can be described thus: Rhesus monkey single oral dose PK. The class given is in vivo, Rhesus monkeys. Conditions: single oral 10 mg/kg dose. On the procedure: FIG. 10 is a plot of PTC299 plasma concentration (µg/mL) vs hours of plasma dihydroorotate (DHO) and PTC299 concentrations after a single dose of PTC299 was administered to a single monkey.
The dosing regimen used in the current study was also supported by experiments performed in Rhesus monkeys. Monkeys were given a single oral 10 mg/kg dose of PTC299. The DHO plasma level increased after dosing, peaked at 24 hours and then decreased, as illustrated in FIG. 10. […] The AUC for PTC299 is consistent with that observed in the healthy volunteer study PTC299-ONC-002-HV indicating this exposure would result in inhibition of DHODH and supports the use of the 200 mg BID dosing regimen in the current study.

For the compound `COc1ccc([C@H]2c3[nH]c4ccc(Cl)cc4c3CCN2C(=O)Oc2ccc(Cl)cc2)cc1` [PTC299, 4-chlorophenyl (S)-6-chloro-1-(4-methoxyphenyl)-1,3,4,9-tetrahydro-2H-pyrido[3,4-b]indole-2-carboxylate], the “time to steady state” value in series [1] was roughly 15 days. In series [2], this compound registered an EC50 of 4 nM. Moreover, the AUC in series [3] (plasma, read-out: AUC of PTC299) stood at 22.5 µg·h/mL. Also, the Cmax in series [3] (plasma, read-out: Cmax of PTC299) was found to be 2.51 µg/mL. The half-life in series [3] (plasma, read-out: Half-life of PTC299 (converted)) is 33 h. For the same compound, in series [3], the “Tmax of PTC299” value is listed as 2 hr post-dose.

For the origin of these results see patent US20230172915A1, “DHODH INHIBITOR FOR THE TREATMENT OF COVID-19” (priority 2020, published 2023).
